Results reported in article PMC8038958 (The AAPS Journal, 2021).

Assay: Population pharmacokinetic analysis (NONMEM, two-compartment model) of vancomycin serum concentrations from routine TDM
[1] = structural base model without covariates, estimate (RSE %)

CN[C@H](CC(C)C)C(=O)N[C@H]1C(=O)N[C@@H](CC(N)=O)C(=O)N[C@H]2C(=O)N[C@H]3C(=O)N[C@H](C(=O)N[C@H](C(=O)O)c4cc(O)cc(O)c4-c4cc3ccc4O)[C@H](O)c3ccc(c(Cl)c3)Oc3cc2cc(c3O[C@@H]2O[C@H](CO)[C@@H](O)[C@H](O)[C@H]2O[C@H]2C[C@](C)(N)[C@H](O)[C@H](C)O2)Oc2ccc(cc2Cl)[C@H]1O [Vancomycin]
estimated exponent of TBW on V1 and V2 (alternative model with power function instead of linear TBW, not retained): 1.05 | CL (structural base model without covariates, 1892 children 1-18 years, normal weight, overweight, obese, intermittent i.v. infusion, estimate (RSE %)): 2.17 (2) L/h | Q (inter-compartmental clearance between V1 and V2) [1]: 2.24 (4) L/h | V1 (volume of distribution of central compartment) [1]: 5.27 (8) L | V2 (volume of distribution of the peripheral compartment) [1]: 11.9 (8) L
